From ChEMBL document CHEMBL1821550 (Bioorg Med Chem Lett, 2011) come the findings set out here.

A short description of the data set: physchem. The conditions noted are these: octanol/water.
What is called logD is the decadic logarithm of the distribution of all forms, ionised or not, between an organic phase and buffer at a given pH. Read a high logD as higher lipophilicity. In the case of `Cc1ccc(-c2ccc3cc(CCN4CCC[C@H]4C)ccc3n2)c(C)n1`, the logD was 3.1.

Take `Cc1cc(-c2ccc3cc(CCN4CCC[C@H]4C)ccc3n2)nc(-c2ccccc2)n1`: the logD turned out to be 4.2.

Take `COc1ncc(-c2ccc3cc(CCN4CCC[C@H]4C)ccc3n2)cn1`: the logD amounted to 2.4.

In turn, `Cc1nc(-c2cccnc2)sc1-c1ccc2cc(CCN3CCC[C@H]3C)ccc2n1` showed a logD of 3.5.

Regarding `Cc1ccc(-c2ccc3cc(CCN4CCC[C@H]4C)ccc3n2)cn1`, the pH-dependent lipophilicity (logD) amounted to 2.8.

For `Cc1nc(C)c(-c2ccc3cc(CCN4CCC[C@H]4C)ccc3n2)o1`, the logD was found to be 2.4.

Turning to `C[C@@H]1CCCN1CCc1ccc2nc(-c3ccncc3)ccc2c1`, the logD was found to be 2.5.

In the case of `C[C@@H]1CCCN1CCc1ccc2nc(-c3ccc(Cl)nc3)ccc2c1`, the logD is 3.4.

Consider `Cc1c(-c2ccc3cc(CCN4CCC[C@H]4C)ccc3n2)cnn1-c1ccc(N(C)C)nn1`, for which the logD worked out at 3.

On to `Cc1c(-c2ccc3cc(CCN4CCC[C@H]4C)ccc3n2)cnn1-c1ccc(Cl)c(Cl)c1`, for which the logD is 5.4.

`C[C@@H]1CCCN1CCc1ccc2nc(-c3csc(-c4cc(Cl)nc(Cl)c4)n3)ccc2c1` had a logD of 5.

Molecule `Cc1[nH]ncc1-c1ccc2cc(CCN3CCC[C@H]3C)ccc2n1` gave a logD of 2.4.

With `Cc1nc(C)c(-c2ccc3cc(CCN4CCC[C@H]4C)ccc3n2)s1`, the logD is 2.9.

Consider `C[C@@H]1CCCN1CCc1ccc2nc(-c3cccnc3)ccc2c1`, for which the log distribution coefficient (logD) turned out to be 2.5.

On to `C[C@@H]1CCCN1CCc1ccc2nc(-c3ccn[nH]3)ccc2c1`, for which the pH-dependent lipophilicity (logD) is 2.4.

For `C[C@@H]1CCCN1CCc1ccc2nc(-c3cn[nH]c3)ccc2c1`, the logD stood at 2.1.

Molecule `Cc1n[nH]c(C)c1-c1ccc2cc(CCN3CCC[C@H]3C)ccc2n1` yielded a pH-dependent lipophilicity (logD) of 2.5.

`Cc1c(-c2ccc3cc(CCN4CCC[C@H]4C)ccc3n2)cnn1C`: the logD is 2.5.

Consider `Cc1cc(C(F)(F)F)cc(-n2ncc(-c3ccc4cc(CCN5CCC[C@H]5C)ccc4n3)c2C)n1`, for which the logD is 4.6.

Molecule `C[C@@H]1CCCN1CCc1ccc2nc(-c3csc(-c4ccccc4)n3)ccc2c1` returned a pH-dependent lipophilicity (logD) of 4.4.

With `C[C@@H]1CCCN1CCc1ccc2nc(-c3csc(-c4ccc(OCC(F)(F)F)nc4)n3)ccc2c1`, the logD stood at 4.8.

Turning to `Cc1ccc(-c2ccc(-c3ccc4cc(CCN5CCC[C@H]5C)ccc4n3)s2)s1`, the logD was determined as 5.5.

In the case of `C[C@@H]1CCCN1CCc1ccc2nc(C(C)(C)C)ccc2c1`, the logD was found to be 3.6.

For the molecule `C[C@@H]1CCCN1CCc1ccc2nc(-c3ccc(N4CCCCC4)cc3)ccc2c1`, the logD was 3.1.

Molecule `CC1CCN(c2ccc3cc(CCN4CCC[C@H]4C)ccc3n2)CC1` returned a logD of 2.9.

`C[C@@H]1CCCN1CCc1ccc2nc(C3=NCCS3)ccc2c1`: the logD was determined as 2.7.

`Cc1nc(-c2cnccn2)sc1-c1ccc2cc(CCN3CCC[C@H]3C)ccc2n1` showed a pH-dependent lipophilicity (logD) of 2.7.

The molecule `Cc1c(-c2ccc(Cl)cc2)noc1-c1ccc2cc(CCN3CCC[C@H]3C)ccc2n1` showed a logD of 5.5.

With `C[C@@H]1CCCN1CCc1ccc2nc(-c3c(O)ccnc3C(F)(F)F)ccc2c1`, the logD worked out at 3.6.

Turning to `C[C@@H]1CCCN1CCc1ccc2nc(-c3ccc(C#N)cc3)ccc2c1`, the logD came to 3.5.

`C[C@@H]1CCCN1CCc1ccc2nc(-c3cncnc3)ccc2c1`: the logD is 1.9.

In the case of `Cc1nc(-c2ccccn2)sc1-c1ccc2cc(CCN3CCC[C@H]3C)ccc2n1`, the pH-dependent lipophilicity (logD) came to 3.9.

In the case of `C[C@@H]1CCCN1CCc1ccc2nc(-c3cnccn3)ccc2c1`, the logD came out at 1.8.

`C[C@@H]1CCCN1CCc1ccc2ncccc2c1` gave a logD of 1.7.

As to `Cc1ccc2cc(CCN3CCC[C@H]3C)ccc2n1`, the log distribution coefficient (logD) was found to be 2.

`C[C@@H]1CCCN1CCc1ccc2nc(C3CC3)ccc2c1` came in with a logD of 2.7.

The molecule `Cc1nc(-c2cccs2)sc1-c1ccc2cc(CCN3CCC[C@H]3C)ccc2n1` came in with a logD of 4.6.

For `C[C@@H]1CCCN1CCc1ccc2nc(-c3cnc(-c4ccccc4)s3)ccc2c1`, the logD was determined as 4.3.

For the molecule `C[C@@H]1CCCN1CCc1ccc2nc(-c3ccc(-n4ccc(=O)cc4)cc3)ccc2c1`, the logD was 3.4.

As for `C[C@@H]1CCCN1CCc1ccc2nc(-c3cc(Br)no3)ccc2c1`, the pH-dependent lipophilicity (logD) turned out to be 3.4.

For the molecule `C[C@@H]1CCCN1CCc1ccc2nc(-c3nccs3)ccc2c1`, the log distribution coefficient (logD) stood at 2.5.

`c1csc(-c2ccc(OCCCN3CCCCC3)cc2)c1` returned a logD of 2.8.

Molecule `c1coc(-c2ccc(OCCCN3CCCCC3)cc2)c1` displayed a logD of 2.3.

`c1cc(C2CCCO2)ccc1OCCCN1CCCCC1` (centres undefined): the logD was determined as 1.7.

Regarding `c1c[nH]c(-c2ccc(OCCCN3CCCCC3)cc2)n1`, the logD was 1.6.

Turning to `Cn1nccc1-c1ccc(OCCCN2CCCCC2)cc1`, the logD is 1.8.

`c1ncc(-c2ccc(OCCCN3CCCCC3)cc2)o1` yielded a logD of 1.1.

`c1cc(C2=NCCO2)ccc1OCCCN1CCCCC1` yielded a logD of 1.3.

The molecule `C1=C(c2ccc(OCCCN3CCCCC3)cc2)CCC1` had a logD of 2.9.

As for `c1cc(C2CCCCC2)ccc1OCCCN1CCCCC1`, the logD came out at 3.6.

Molecule `c1cc(N2CCCCC2)ccc1OCCCN1CCCCC1` yielded a logD of 1.7.

For `c1cc(C2CCCCO2)ccc1OCCCN1CCCCC1` (centres undefined), the logD was determined as 2.1.

The molecule `c1cc(C2CCOCC2)ccc1OCCCN1CCCCC1` returned a logD of 1.8.

Regarding `c1cc(-c2ccc3c(c2)OCO3)ccc1OCCCN1CCCCC1`, the logD amounted to 2.7.

As to `COc1ccccc1-c1ccc(OCCCN2CCCCC2)cc1`, the logD came to 2.9.

Molecule `O=C(c1ccccc1-c1ccc(OCCCN2CCCCC2)cc1)N1CCCCC1` displayed a logD of 3.2.

Molecule `CCOC(=O)c1ccc(-c2ccc(OCCCN3CCCCC3)cc2)cc1` registered a logD of 3.1.

`CN(C)C1CCC(c2ccc(OCCCN3CCCCC3)cc2)CC1` (centres undefined) had a pH-dependent lipophilicity (logD) of 1.4.

For the molecule `Cc1nc(C)c(-c2ccc3cc(CCN4CCCC4C)ccc3n2)cc1C#N` (centres undefined), the logD came out at 2.9.

In turn, `Cc1nc(C)c(-c2ccc3cc(CCN4CCCC4C)ccc3n2)cc1C(N)=O` (centres undefined) came in with a logD of 2.1.

Molecule `COC(=O)c1c(C)noc1-c1ccc2cc(CCN3CCC[C@H]3C)ccc2n1` had a logD of 2.5.

`COC(=O)c1cc(-c2ccc3cc(CCN4CCC[C@H]4C)ccc3n2)on1` came in with a logD of 2.7.

`CC1CCCN1CCc1ccc2nc(-c3ccoc3)ccc2c1` (centres undefined) displayed a logD of 2.7.

In turn, `CC1CCCN1CCc1ccc2nc(-c3ccsc3)ccc2c1` (centres undefined) came in with a logD of 3.3.

With `CC1CCCN1CCc1ccc2nc(-c3cccs3)ccc2c1` (centres undefined), the logD is 3.6.

Molecule `Cc1nc(N2CCCC2)ncc1-c1ccc2cc(CCN3CCC[C@H]3C)ccc2n1` returned a logD of 2.7.

`CCOc1ccc(-n2ncc(-c3ccc4cc(CCN5CCC[C@H]5C)ccc4n3)c2C)nn1` showed a logD of 3.8.

Regarding `C[C@@H]1CCCN1CCc1cc2cc(-c3ccc(C#N)cc3)ccc2o1`, the pH-dependent lipophilicity (logD) amounted to 3.2.

`Cc1c(-c2ccc3cc(CCN4CCC[C@H]4C)ccc3n2)cnn1-c1ccccn1` gave a logD of 3.4.

Turning to `Cc1nn(C)cc1-c1ccc2cc(CCN3CCC[C@H]3C)ccc2n1`, the logD turned out to be 2.6.

With `COc1cccc2nc(-c3ccc(OC4CCN(C5CCC5)CC4)cc3)n(C)c(=O)c12`, the logD worked out at 2.2.

`COc1ccc2nc(-c3ccc(OC4CCN(C5CCC5)CC4)cc3)n(C)c(=O)c2c1` showed a logD of 2.2.

Turning to `COc1cccc2c(=O)n(C)c(-c3ccc(OC4CCN(C5CCC5)CC4)cc3)nc12`, the logD was determined as 2.2.

`Cn1c(-c2ccc(OC3CCN(C4CCC4)CC3)cc2)nc2c(Cl)cccc2c1=O`: the logD was 2.8.

The molecule `Cn1c(-c2ccc(OC3CCN(C4CCC4)CC3)cc2)nc2c(C(F)(F)F)cccc2c1=O` yielded a logD of 3.1.

Turning to `COc1ccc2c(=O)n(C)c(-c3ccc(OC4CCN(C5CCC5)CC4)cc3)nc2c1`, the logD is 2.2.

Regarding `Cn1c(-c2ccc(OC3CCN(C4CCCC4)CC3)cc2)nc2ccccc2c1=O`, the logD is 2.6.

In turn, `Cc1nc2cc(F)ccc2c(=O)n1-c1ccc(OCCCN2CCCC2)cc1` returned a logD of 1.9.

In turn, `Cc1nc2c(C(F)(F)F)cccc2c(=O)n1-c1ccc(OCCCN2CCCC2)cc1` came in with a logD of 2.6.

`COc1cccc2c(=O)n(-c3ccc(OCCCN4CCCC4)cc3)c(C)nc12` yielded a log distribution coefficient (logD) of 1.7.

`COc1ccc2c(=O)n(-c3ccc(OCCCN4CCCC4)cc3)c(C)nc2c1` had a logD of 1.7.

In the case of `Cc1nc2cccc(Cl)c2c(=O)n1-c1ccc(OCCCN2CCCC2)cc1`, the log distribution coefficient (logD) was 2.4.

`Cc1nc2cc(C(F)(F)F)ccc2c(=O)n1-c1ccc(OCCCN2CCCC2)cc1` showed a logD of 2.6.

`COc1cccc2nc(C)n(-c3ccc(OCCCN4CCCC4)cc3)c(=O)c12`: the logD amounted to 1.7.

For the molecule `COc1ccc2nc(C)n(-c3ccc(OCCCN4CCCC4)cc3)c(=O)c2c1`, the logD was found to be 1.7.

Molecule `Cc1ccc2nc(C)n(-c3ccc(OCCCN4CCCC4)cc3)c(=O)c2c1` returned a pH-dependent lipophilicity (logD) of 2.2.

As for `Cc1ccc2c(=O)n(-c3ccc(OCCCN4CCCC4)cc3)c(C)nc2c1`, the pH-dependent lipophilicity (logD) amounted to 2.2.

As to `Cc1cccc2c(=O)n(-c3ccc(OCCCN4CCCC4)cc3)c(C)nc12`, the logD was found to be 2.2.

The molecule `Cc1nc2ccc(F)cc2c(=O)n1-c1ccc(OCCCN2CCCC2)cc1` gave a logD of 1.9.

Regarding `O=c1c2ccccc2nc(-c2ccc(OCCCN3CCCCC3)cc2)n1Cc1ccccc1`, the logD amounted to 3.8.

For `O=c1c2ccccc2nc(-c2ccc(OCCCN3CCCCC3)cc2)n1-c1ccccc1`, the logD was found to be 3.8.

`Cn1c(-c2ccc(OCCCN3CCCCC3)cc2)nc2ccccc2c1=O` came in with a logD of 2.2.

With `CCCn1c(-c2ccc(OCCCN3CCCCC3)cc2)nc2ccccc2c1=O`, the logD is 3.1.

`Cn1c(-c2ccc(OCCCN3CCCC3)cc2)nc2ccccc2c1=O` gave a logD of 1.8.

Regarding `Cn1c(-c2ccc(OC3CCN(C4CCC4)CC3)cc2)nc2ccccc2c1=O`, the logD was determined as 2.2.

Molecule `CC(C)n1c(-c2ccc(OCCCN3CCCCC3)cc2)nc2ccccc2c1=O` displayed a logD of 3.

Molecule `Cc1cccc2c(=O)n(C)c(-c3ccc(OC4CCN(C5CCC5)CC4)cc3)nc12` yielded a logD of 2.7.

`Cc1nc2c(F)cccc2c(=O)n1-c1ccc(OCCCN2CCCC2)cc1`: the logD amounted to 1.9.

As for `CCn1c(-c2ccc(OCCCN3CCCCC3)cc2)nc2ccccc2c1=O`, the logD amounted to 2.6.
